The values below come from patent US11149014B2, “Method for treating pain or associated condition or symptom” (priority 2014, dated 2021).

One assay relates to RAW 264.7 macrophages. The assay is described as follows: Nitric oxide (NO) production by LPS-activated RAW 264.7 macrophages (Griess). Type of assay: cell-based, mice. Particulars: Mus musculus, RAW264.7; 60 μg/ml; LPS 1 μg/mL, 24 h. How it is done: (§1) Raw 264.7 cells, a monocytic-macrophage cell line derived from BALB/c mice, were obtained from American Type Culture collection (Rockville, Md.). The cells were cultured in Dulbecco's modified Eagle medium (DMEM) supplemented with 5% fetal calf serum (FCS) and sodium pyrovate, glutamine, and antibiotics. For activation, the cells were incubated with LPS (E. coli 1 μg/mL for 24 h, Sigma, Israel). These cells were applied for ROI and Nitric Oxide (NO) generation in-vitro.
RAW 264.7 macrophages were treated with various doses (1-60 μg/ml) of HU-436 followed the addition of 1 μg/mL of lipopolysaccharide (LPS, E. coli, Sigma) for activation. The macrophages were then cultivated in a humid atmosphere with 5% CO2 for 24 h. NO generation was determined by measuring the nitrite accumulated in the supernatants (100 μL) of the HU-436-treated macrophages as follows: An equal volume (100 μL) of Griess reagent (1% sulfanilamide, 0.1% naphthalene diamine HCl, 2% H3PO4) was added to each supernatant. Following 10 min of incubation at room temperature, the color production was measured at 550 nm with an ELISA reader. The concentration of nitrite was calculated according to a standard curve. The results are presented in FIG. 1 wherein inhibition of more than 50% was found fallowing incubation of the cells with 60 μg/ml HU-436.
For orientation: The Griess reaction detects nitrite, a stable product of nitric oxide.

Another assay concerns Sabra mice. The assay is described as follows: Zymosan-induced hind paw swelling (inflammation), caliper. Type of assay: in vivo.
Another assay relates to Raw 264.7 cells. The assay can be described thus: Reactive oxygen intermediate (ROI) production by Raw 264.7 macrophages (luminol/zymosan chemiluminescence). Type of assay: cell-based, mice. The conditions noted are these: Mus musculus, RAW264.7, read-out: inhibition of ROI generation. How it is done: as §1
Raw 264.7 cells were removed using a scrapper, washed, and re-suspended in Hanks balanced salt solution (without phenol red). For measurement of chemiluminescence, two luminometer tubes were each loaded with: 0.5 mL of cell suspension (5×10^5 cells), HU-436 (two separate doses in each tube of 40 μg/ml and 60 μg/ml), 10 μL luminol (Sigma) and 30 μL of zymosan (Sigma). The chemiluminescence in each tube was measured immediately thereafter by a luminometer (Biolumate LB 95, Berhold, Wilbad, Germany)

Structures can show the parent of a compound that is named as a salt.

As to `C=C(C)C1CCC(C)=CC1c1c(OC)cc(CCCCC)cc1OC(=O)CCN1CCOCC1` [HU-436, Maleate Salt of 3-methoxy-2-((6R)-3-methyl-6-(prop-l-en-2-yl)cyclohex-2-enyl)-5-pentylphenyl 3-morpholinopropanoate], the inhibition at 60 µg/mL was over 50% in the assay on RAW 264.7 macrophages and 28% with Raw 264.7 cells (60 μg/ml). Moreover, in the assay on Sabra mice (20 mg/kg ip injection), the “inflammatory response (swelling) compared to controls” value is “reduction in inflammatory response (swelling) was observed compared to controls”. For the same molecule, the “inflammation compared to the controls” value with Sabra mice (30 mg/kg given orally) and with Sabra mice (50 mg/kg given orally) was “reduced inflammation compared to the controls” in each case. The anti-inflammation properties result in the assay on Sabra mice (conclusion) is listed as “moderate anti-inflammation properties”. In the assay on Raw 264.7 cells (40 μg/ml), the inhibition at 40 µg/mL was found to be 20%.
